From ChEMBL document CHEMBL5126566, “Comparison of three zinc binding groups for HDAC inhibitors - A potency, selectivity and enzymatic kinetics study” (Bioorg Med Chem Lett, 2022)
pIC50: −log10 of the molar value. Active and inactive are the calls of the source. No cut-off for these calls is given here.

Tests used:
Histone deacetylase 11 = target: T1, Histone deacetylase 11 (Homo sapiens, UniProt Q96DB2); assay: Inhibition of HDAC11 (unknown origin)
T1 sequence (Q96DB2 whole entry): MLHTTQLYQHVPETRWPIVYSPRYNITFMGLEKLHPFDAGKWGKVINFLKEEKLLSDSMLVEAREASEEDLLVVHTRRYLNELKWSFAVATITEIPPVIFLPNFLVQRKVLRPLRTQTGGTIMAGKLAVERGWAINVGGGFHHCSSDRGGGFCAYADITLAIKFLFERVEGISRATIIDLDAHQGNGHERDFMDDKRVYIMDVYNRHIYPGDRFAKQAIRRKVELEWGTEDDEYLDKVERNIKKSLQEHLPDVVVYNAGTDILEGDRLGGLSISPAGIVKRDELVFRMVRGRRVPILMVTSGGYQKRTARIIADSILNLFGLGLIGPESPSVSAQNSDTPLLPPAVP

Histone deacetylase 3 [1] = target: T2, Histone deacetylase 3 (Homo sapiens, UniProt O15379); assay: Inhibition of HDAC3 (unknown origin) preincubated for 5 mins
T2 sequence (O15379 whole entry): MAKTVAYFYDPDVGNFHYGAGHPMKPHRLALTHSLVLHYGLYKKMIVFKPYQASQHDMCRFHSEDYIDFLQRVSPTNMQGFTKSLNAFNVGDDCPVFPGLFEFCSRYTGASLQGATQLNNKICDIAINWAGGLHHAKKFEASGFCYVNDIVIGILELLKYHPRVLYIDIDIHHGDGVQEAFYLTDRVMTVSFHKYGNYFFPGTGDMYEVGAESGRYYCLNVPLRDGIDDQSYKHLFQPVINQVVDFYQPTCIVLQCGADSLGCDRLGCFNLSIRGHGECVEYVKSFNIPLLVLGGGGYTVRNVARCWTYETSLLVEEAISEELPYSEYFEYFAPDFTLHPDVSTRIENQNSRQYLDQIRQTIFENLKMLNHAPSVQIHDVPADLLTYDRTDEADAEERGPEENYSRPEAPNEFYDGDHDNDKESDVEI

Histone deacetylase 3 [2] = target: T2, Histone deacetylase 3; assay: Inhibition of HDAC3 (unknown origin)
MV4-11 = assay: Antiproliferative activity against human MV4-11 cells; format: functional, cell-based
Histone deacetylase 9 = Histone deacetylase 9 (Homo sapiens, UniProt Q9UKV0); assay: Inhibition of HDAC9 (unknown origin)
Histone deacetylase 9, sequence (Q9UKV0 whole entry): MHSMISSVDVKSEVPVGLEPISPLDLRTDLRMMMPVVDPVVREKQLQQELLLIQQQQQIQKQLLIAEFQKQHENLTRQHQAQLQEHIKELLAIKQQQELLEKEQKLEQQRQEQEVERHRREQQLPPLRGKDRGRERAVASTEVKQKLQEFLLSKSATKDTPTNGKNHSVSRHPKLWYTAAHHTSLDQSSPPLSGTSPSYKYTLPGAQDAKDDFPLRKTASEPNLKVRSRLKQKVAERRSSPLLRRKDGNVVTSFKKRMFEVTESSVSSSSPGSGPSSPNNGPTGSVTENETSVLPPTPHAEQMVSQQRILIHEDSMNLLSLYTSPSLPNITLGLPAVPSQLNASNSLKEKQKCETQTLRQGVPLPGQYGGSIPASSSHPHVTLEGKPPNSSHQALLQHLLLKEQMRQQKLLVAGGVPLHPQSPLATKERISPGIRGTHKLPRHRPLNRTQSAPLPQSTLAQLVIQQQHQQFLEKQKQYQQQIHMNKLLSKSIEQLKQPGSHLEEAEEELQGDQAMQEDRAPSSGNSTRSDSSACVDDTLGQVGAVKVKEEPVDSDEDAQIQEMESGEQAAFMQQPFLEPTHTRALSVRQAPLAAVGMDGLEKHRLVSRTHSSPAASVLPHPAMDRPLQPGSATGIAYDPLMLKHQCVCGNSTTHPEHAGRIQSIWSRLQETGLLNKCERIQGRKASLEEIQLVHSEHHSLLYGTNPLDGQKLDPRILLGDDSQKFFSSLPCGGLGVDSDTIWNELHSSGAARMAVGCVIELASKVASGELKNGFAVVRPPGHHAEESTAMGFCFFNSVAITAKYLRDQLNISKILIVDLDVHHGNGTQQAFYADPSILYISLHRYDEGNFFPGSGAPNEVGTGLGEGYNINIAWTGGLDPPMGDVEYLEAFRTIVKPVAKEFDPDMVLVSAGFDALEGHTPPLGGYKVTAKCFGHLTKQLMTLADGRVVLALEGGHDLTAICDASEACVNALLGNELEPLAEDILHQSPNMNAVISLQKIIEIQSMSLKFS

Histone deacetylase 5 = Histone deacetylase 5 (Homo sapiens, UniProt Q9UQL6); assay: Inhibition of HDAC5 (unknown origin)
Histone deacetylase 5, sequence (Q9UQL6 whole entry): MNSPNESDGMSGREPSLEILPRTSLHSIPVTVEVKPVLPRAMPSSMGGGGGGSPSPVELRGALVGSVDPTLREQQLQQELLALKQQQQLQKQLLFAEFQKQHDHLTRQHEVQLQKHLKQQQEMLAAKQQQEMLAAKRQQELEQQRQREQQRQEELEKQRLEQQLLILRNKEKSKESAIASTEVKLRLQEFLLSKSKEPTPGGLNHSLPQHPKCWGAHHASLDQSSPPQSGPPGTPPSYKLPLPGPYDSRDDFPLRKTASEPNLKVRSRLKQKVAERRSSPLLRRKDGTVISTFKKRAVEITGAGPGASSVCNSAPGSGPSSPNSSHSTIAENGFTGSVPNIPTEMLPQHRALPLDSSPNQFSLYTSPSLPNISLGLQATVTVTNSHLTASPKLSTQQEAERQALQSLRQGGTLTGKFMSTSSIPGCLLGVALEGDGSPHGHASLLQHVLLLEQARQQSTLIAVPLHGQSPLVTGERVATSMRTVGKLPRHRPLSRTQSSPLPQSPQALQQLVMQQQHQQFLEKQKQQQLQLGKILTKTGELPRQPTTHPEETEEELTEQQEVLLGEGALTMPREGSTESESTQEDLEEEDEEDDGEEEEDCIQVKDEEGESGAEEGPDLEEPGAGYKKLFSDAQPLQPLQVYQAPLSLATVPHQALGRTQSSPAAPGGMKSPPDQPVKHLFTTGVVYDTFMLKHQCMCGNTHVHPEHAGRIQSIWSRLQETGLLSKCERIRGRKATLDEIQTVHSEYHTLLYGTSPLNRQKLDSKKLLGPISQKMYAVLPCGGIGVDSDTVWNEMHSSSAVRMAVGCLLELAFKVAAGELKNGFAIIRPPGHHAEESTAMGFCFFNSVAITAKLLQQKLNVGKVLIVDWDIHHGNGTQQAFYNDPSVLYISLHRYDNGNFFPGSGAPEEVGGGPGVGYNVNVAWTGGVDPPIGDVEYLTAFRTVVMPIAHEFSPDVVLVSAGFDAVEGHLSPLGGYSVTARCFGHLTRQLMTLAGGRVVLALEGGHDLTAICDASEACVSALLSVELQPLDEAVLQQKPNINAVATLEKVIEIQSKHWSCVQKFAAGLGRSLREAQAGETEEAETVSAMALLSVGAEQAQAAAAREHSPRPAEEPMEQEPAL

Histone deacetylase 1 [3] = target: T3, Histone deacetylase 1 (Homo sapiens, UniProt Q13547); assay: Competitive inhibition of HDAC1 (unknown origin) at 444 to 1500 nM by Lineweaver-Burk plot analysis; conditions: dose 444-1500 nM
T3 sequence (Q13547 whole entry): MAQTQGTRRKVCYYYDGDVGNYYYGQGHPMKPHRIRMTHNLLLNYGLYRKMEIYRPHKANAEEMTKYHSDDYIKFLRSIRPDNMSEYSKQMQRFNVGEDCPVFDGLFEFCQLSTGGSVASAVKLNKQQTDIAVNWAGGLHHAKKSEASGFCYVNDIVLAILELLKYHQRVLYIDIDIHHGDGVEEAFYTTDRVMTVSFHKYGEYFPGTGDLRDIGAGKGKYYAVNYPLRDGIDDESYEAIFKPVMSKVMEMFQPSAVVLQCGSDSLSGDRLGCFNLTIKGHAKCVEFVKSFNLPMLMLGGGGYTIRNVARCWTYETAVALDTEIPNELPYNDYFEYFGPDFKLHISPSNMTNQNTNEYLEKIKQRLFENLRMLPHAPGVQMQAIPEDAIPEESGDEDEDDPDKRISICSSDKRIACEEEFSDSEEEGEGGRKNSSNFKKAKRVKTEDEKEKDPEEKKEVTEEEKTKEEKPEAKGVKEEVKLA

Histone deacetylase 3 [4] = target: T2, Histone deacetylase 3; assay: Inhibition of HDAC3 (unknown origin) preincubated for 60 mins
Histone deacetylase 1 [5] = target: T3, Histone deacetylase 1; assay: Inhibition of HDAC1 (unknown origin) preincubated for 60 mins
Histone deacetylase 2 [6] = target: T4, Histone deacetylase 2 (Homo sapiens, UniProt Q92769); assay: Inhibition of HDAC2 (unknown origin) preincubated for 30 mins
T4 sequence (Q92769 whole entry): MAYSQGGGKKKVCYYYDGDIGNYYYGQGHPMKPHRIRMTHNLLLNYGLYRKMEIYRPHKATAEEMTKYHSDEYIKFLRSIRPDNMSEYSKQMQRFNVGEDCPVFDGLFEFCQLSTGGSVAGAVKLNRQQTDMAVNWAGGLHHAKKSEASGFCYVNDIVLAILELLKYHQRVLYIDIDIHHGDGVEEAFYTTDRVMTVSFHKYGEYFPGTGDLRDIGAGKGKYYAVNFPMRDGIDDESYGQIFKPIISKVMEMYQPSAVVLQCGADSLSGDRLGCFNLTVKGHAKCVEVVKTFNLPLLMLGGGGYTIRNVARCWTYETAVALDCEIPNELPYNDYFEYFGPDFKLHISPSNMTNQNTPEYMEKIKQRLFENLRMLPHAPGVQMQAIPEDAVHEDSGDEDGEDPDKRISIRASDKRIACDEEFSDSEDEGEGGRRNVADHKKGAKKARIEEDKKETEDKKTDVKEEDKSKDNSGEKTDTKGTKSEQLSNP

Histone deacetylase 1 [7] = target: T3, Histone deacetylase 1; assay: Inhibition of HDAC1 (unknown origin)
Histone deacetylase 2 [8] = target: T4, Histone deacetylase 2; assay: Inhibition of HDAC2 (unknown origin) preincubated for 90 mins
Histone deacetylase 8 = target: T5, Histone deacetylase 8 (Homo sapiens, UniProt Q9BY41); assay: Inhibition of HDAC8 (unknown origin)
T5 sequence (Q9BY41 whole entry): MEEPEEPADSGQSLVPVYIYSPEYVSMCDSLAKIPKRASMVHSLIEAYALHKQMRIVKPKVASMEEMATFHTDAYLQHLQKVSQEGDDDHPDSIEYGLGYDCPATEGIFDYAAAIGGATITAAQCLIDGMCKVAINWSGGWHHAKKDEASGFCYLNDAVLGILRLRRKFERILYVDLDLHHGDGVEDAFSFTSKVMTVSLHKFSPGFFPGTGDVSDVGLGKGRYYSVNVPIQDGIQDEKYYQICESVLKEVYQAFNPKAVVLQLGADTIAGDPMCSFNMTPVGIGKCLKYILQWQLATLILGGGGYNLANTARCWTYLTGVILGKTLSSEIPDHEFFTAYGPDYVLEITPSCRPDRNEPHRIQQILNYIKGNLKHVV

Histone deacetylase 1 [9] = target: T3, Histone deacetylase 1; assay: Inhibition of HDAC1 (unknown origin) preincubated for 30 mins
Histone deacetylase 3 [10] = target: T2, Histone deacetylase 3; assay: Competitive inhibition of HDAC3 (unknown origin) at 444 to 1500 nM by Lineweaver-Burk plot analysis; conditions: dose 444-1500 nM
Histone deacetylase 1 [11] = target: T3, Histone deacetylase 1; assay: Inhibition of HDAC1 (unknown origin) preincubated for 5 mins
[12] = target: T6, Polyamine deacetylase HDAC10 (Homo sapiens, UniProt Q969S8); assay: Inhibition of HDAC10 (unknown origin)
T6 sequence (Q969S8 whole entry): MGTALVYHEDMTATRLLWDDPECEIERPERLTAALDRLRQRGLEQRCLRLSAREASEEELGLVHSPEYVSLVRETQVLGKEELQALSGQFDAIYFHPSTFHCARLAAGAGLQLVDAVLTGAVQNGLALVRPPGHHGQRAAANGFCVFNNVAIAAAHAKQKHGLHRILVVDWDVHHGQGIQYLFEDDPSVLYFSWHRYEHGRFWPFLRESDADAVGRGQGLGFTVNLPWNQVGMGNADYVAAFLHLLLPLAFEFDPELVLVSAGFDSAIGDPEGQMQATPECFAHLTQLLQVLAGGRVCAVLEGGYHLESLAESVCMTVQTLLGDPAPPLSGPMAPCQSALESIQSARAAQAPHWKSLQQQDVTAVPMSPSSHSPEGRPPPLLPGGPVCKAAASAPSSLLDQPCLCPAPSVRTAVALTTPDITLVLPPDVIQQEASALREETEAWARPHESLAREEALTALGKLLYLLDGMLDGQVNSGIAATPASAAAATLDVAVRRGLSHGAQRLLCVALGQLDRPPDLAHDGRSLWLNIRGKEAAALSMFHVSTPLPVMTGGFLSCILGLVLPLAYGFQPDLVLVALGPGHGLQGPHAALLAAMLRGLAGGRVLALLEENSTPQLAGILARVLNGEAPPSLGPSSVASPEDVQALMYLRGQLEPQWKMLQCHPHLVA

Histone deacetylase 2 [13] = target: T4, Histone deacetylase 2; assay: Inhibition of HDAC2 (unknown origin)
Histone deacetylase 7 = target: T7, Histone deacetylase 7 (Homo sapiens, UniProt Q8WUI4); assay: Inhibition of HDAC7 (unknown origin)
T7 sequence (Q8WUI4 whole entry): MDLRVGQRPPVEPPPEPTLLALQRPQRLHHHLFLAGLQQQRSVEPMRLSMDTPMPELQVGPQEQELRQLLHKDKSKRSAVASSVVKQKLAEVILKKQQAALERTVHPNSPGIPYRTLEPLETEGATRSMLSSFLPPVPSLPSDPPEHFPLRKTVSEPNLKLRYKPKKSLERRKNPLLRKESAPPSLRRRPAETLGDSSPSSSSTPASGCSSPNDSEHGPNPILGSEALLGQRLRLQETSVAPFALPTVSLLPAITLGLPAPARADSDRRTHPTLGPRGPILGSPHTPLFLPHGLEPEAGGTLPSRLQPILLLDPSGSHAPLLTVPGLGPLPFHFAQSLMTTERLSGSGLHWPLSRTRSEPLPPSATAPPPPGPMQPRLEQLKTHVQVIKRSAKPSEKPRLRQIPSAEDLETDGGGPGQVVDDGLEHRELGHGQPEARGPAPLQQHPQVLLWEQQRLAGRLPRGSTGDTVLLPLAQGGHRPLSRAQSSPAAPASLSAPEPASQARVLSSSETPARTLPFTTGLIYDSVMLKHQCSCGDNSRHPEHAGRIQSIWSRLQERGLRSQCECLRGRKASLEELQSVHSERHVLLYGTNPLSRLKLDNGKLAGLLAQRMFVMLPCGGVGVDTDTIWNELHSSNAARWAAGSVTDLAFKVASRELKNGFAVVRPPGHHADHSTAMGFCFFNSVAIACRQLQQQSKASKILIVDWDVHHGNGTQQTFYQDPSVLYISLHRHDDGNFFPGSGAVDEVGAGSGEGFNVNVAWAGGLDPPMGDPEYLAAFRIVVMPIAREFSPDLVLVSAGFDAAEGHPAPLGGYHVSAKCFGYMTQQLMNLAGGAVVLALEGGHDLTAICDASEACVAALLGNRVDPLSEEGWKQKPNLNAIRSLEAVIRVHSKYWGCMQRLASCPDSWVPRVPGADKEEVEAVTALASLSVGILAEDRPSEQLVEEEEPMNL

Histone deacetylase 2 [14] = target: T4, Histone deacetylase 2; assay: Inhibition of HDAC2 (unknown origin) preincubated for 5 mins
Histone deacetylase 1 [15] = target: T3, Histone deacetylase 1; assay: Inhibition of HDAC1 (unknown origin) preincubated for 120 mins
Histone deacetylase 2 [16] = target: T4, Histone deacetylase 2; assay: Competitive inhibition of HDAC2 (unknown origin) at 444 to 1500 nM by Lineweaver-Burk plot analysis; conditions: dose 444-1500 nM
Histone deacetylase 2 [17] = target: T4, Histone deacetylase 2; assay: Inhibition of HDAC2 (unknown origin) preincubated for 120 mins
Histone deacetylase 2 [18] = target: T4, Histone deacetylase 2; assay: Inhibition of HDAC2 (unknown origin) preincubated for 60 mins
Histone deacetylase 3 [19] = target: T2, Histone deacetylase 3; assay: Inhibition of HDAC3 (unknown origin) preincubated for 90 mins
Histone deacetylase 4 = Histone deacetylase 4 (Homo sapiens, UniProt P56524); assay: Inhibition of HDAC4 (unknown origin)
Histone deacetylase 4, sequence (P56524 whole entry): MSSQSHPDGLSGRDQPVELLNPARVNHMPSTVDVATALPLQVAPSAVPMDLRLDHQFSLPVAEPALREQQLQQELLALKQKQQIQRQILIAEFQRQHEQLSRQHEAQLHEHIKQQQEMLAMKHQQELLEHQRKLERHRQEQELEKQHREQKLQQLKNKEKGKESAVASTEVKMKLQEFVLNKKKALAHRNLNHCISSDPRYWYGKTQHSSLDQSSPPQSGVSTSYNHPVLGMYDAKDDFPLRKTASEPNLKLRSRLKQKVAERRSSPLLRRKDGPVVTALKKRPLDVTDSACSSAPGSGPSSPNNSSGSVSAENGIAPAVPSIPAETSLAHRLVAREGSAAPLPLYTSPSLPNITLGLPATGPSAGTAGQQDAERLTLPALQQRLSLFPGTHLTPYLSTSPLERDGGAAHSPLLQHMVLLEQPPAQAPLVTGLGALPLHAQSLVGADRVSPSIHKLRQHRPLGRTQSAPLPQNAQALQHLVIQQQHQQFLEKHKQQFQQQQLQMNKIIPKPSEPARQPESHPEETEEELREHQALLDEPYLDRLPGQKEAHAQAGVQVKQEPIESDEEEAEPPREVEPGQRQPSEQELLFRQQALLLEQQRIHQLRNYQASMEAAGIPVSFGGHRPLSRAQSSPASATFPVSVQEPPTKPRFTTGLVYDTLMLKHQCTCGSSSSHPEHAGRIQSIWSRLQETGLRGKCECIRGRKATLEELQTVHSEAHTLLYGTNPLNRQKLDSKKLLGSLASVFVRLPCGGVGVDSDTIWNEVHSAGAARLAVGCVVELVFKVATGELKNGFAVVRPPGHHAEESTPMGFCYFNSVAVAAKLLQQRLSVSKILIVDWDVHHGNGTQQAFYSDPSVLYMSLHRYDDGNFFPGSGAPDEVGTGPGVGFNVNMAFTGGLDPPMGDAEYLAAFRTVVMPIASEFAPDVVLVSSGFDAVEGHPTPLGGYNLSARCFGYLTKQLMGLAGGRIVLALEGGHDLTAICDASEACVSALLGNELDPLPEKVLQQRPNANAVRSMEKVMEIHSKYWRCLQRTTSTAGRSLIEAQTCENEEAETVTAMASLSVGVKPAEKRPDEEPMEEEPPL

[20] = target: T8, Protein deacetylase HDAC6 (Homo sapiens, UniProt Q9UBN7); assay: Inhibition of HDAC6 (unknown origin)
T8 sequence (Q9UBN7 whole entry): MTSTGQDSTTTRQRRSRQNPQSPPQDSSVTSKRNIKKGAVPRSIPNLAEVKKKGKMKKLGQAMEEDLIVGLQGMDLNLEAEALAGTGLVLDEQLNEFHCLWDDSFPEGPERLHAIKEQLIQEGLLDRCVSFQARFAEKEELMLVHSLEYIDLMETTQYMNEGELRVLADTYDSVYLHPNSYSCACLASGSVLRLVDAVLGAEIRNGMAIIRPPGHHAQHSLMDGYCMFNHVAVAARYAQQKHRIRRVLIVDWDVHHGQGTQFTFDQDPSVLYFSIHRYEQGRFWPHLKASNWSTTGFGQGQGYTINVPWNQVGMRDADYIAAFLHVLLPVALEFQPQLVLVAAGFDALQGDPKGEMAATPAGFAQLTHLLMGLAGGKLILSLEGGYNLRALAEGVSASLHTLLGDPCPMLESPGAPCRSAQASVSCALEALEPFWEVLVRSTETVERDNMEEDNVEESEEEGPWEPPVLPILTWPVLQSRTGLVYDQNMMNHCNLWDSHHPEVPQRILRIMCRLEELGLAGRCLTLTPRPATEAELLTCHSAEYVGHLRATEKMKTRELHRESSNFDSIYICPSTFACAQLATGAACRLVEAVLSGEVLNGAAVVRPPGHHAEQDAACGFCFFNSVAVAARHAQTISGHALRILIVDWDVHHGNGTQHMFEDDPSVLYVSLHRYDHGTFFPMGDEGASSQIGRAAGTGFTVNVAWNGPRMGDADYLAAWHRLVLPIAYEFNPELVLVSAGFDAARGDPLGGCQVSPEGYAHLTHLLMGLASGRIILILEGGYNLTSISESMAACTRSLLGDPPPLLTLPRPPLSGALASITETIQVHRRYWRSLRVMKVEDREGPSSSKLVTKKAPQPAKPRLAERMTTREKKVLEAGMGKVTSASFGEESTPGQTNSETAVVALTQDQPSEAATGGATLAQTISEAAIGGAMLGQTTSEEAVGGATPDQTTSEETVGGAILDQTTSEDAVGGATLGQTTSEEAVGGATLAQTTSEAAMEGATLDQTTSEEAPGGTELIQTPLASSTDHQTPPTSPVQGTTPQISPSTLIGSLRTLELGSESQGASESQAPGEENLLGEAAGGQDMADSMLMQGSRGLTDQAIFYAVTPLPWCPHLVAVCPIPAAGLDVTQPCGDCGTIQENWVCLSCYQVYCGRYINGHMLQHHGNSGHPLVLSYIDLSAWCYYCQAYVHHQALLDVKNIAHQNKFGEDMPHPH

Histone deacetylase 3 [21] = target: T2, Histone deacetylase 3; assay: Inhibition of HDAC3 (unknown origin) preincubated for 30 mins
Histone deacetylase 1 [22] = target: T3, Histone deacetylase 1; assay: Inhibition of HDAC1 (unknown origin) preincubated for 90 mins
Histone deacetylase 3 [23] = target: T2, Histone deacetylase 3; assay: Inhibition of HDAC3 (unknown origin) preincubated for 120 mins

Nc1ccccc1NC(=O)CCCCCCC(=O)Nc1ccccc1
pIC50 (Histone deacetylase 11): < 5.00
pIC50 (Histone deacetylase 3 [1]): 6.18
pIC50 (Histone deacetylase 3 [2]): 6.42
pIC50 (MV4-11): 5.14
pIC50 (Histone deacetylase 9): < 5.00
pIC50 (Histone deacetylase 5): < 5.00
inhibition (Histone deacetylase 1 [3]): Active
pIC50 (Histone deacetylase 3 [4]): 6.27
pIC50 (Histone deacetylase 1 [5]): 5.95
pIC50 (Histone deacetylase 2 [6]): 5.93
pIC50 (Histone deacetylase 1 [7]): 6.08
pIC50 (Histone deacetylase 2 [8]): 5.87
pIC50 (Histone deacetylase 8): < 5.00
pIC50 (Histone deacetylase 1 [9]): 6.04
inhibition (Histone deacetylase 3 [10]): Active
pIC50 (Histone deacetylase 1 [11]): 6.02
pIC50 [12]: < 5.00
pIC50 (Histone deacetylase 2 [13]): 6.28
pIC50 (Histone deacetylase 7): < 5.00
pIC50 (Histone deacetylase 2 [14]): 5.94
pIC50 (Histone deacetylase 1 [15]): 5.97
inhibition (Histone deacetylase 2 [16]): Active
pIC50 (Histone deacetylase 2 [17]): 5.90
pIC50 (Histone deacetylase 2 [18]): 5.93
pIC50 (Histone deacetylase 3 [19]): 6.41
pIC50 (Histone deacetylase 4): < 5.00
pIC50 [20]: < 5.00
pIC50 (Histone deacetylase 3 [21]): 6.25
pIC50 (Histone deacetylase 1 [22]): 5.91
pIC50 (Histone deacetylase 3 [23]): 6.33
